Source: PMC7561186, “Rational design of balanced dual-targeting antibiotics with limited resistance” (PLoS Biology, 2020)
Values after ≈ are worked out from the molar mass of the structure shown. Like-named read-outs stand apart in the source and are kept apart here.

Tested on: S. aureus clinical isolates
Assay: microbe, parasite or virus in culture
Type: cell-based
Conditions: Staphylococcus aureus, read-out: MIC

## CC[C@H]1OC(=O)[C@H](C)[C@@H](O[C@H]2C[C@@](C)(OC)[C@@H](O)[C@H](C)O2)[C@H](C)[C@@H](O[C@@H]2O[C@H](C)C[C@H](N(C)C)[C@H]2O)[C@](C)(O)C[C@@H](C)CN(C)[C@H](C)[C@@H](O)[C@]1(C)O [Azithromycin]
ATCC 29213 / MSSA, S. aureus ATCC 29213, MSSA / VSSA, test date 2018-10-25 (three repeat lines)
  MIC: 1 µg/mL (≈ 1.34 µM)
ATCC 29213 / MSSA, S. aureus ATCC 29213, MSSA / VSSA, test date 2018-11-07
  MIC: 1 µg/mL (≈ 1.34 µM)
MRSA / NRS 3 / VISA, S. aureus IHMA 1308243, NRS3, MRSA / VISA
  MIC: > 32 µg/mL
MRSA / NRS 4 / VISA, S. aureus IHMA 649380, NRS4, MRSA / VISA
  MIC: > 32 µg/mL
MRSA / NRS 18 / VISA, S. aureus IHMA 649386, NRS18, MRSA / VISA
  MIC: > 32 µg/mL
MRSA / NRS 19 / VISA, S. aureus IHMA 649387, NRS19, MRSA / VISA
  MIC: > 32 µg/mL
MRSA / NRS 21 / VISA, S. aureus IHMA 649388, NRS21, MRSA / VISA
  MIC: 0.5 µg/mL (≈ 0.668 µM)
MRSA / NRS 22 / USA600 / VISA, S. aureus IHMA 649389, NRS22, MRSA / VISA, USA600
  MIC: > 32 µg/mL
MRSA / NRS 23 / VISA, S. aureus IHMA 649390, NRS23, MRSA / VISA
  MIC: > 32 µg/mL
MRSA / NRS 24 / VISA, S. aureus IHMA 649391, NRS24, MRSA / VISA
  MIC: > 32 µg/mL
MRSA / NRS 26, S. aureus IHMA 649392, NRS26, MRSA / VSSA
  MIC: > 32 µg/mL
MRSA / NRS 27 / VISA, S. aureus IHMA 1308248, NRS27, MRSA / VISA
  MIC: > 32 µg/mL
MRSA / NRS 29 / VISA, S. aureus IHMA 1308250, NRS29, MRSA / VISA
  MIC: > 32 µg/mL
MRSA / NRS 37 / VISA, S. aureus IHMA 1308251, NRS37, MRSA / VISA
  MIC: > 32 µg/mL
MRSA / NRS 54, S. aureus IHMA 1308253, NRS54, MRSA / VSSA* (*Expected VAN intermediate, confirmed VAN susceptible twice), test date 2018-11-07
  MIC: > 32 µg/mL
MRSA / NRS 56 / VISA, S. aureus IHMA 1308254, NRS56, MRSA / VISA
  MIC: > 32 µg/mL
MRSA / USA100 / VRSA, S. aureus IHMA 672230, VRS1, MRSA / VRSA, USA100
  MIC: > 32 µg/mL
MRSA / USA100 / VRSA, S. aureus IHMA 672231, VRS2, MRSA / VRSA, USA100
  MIC: > 32 µg/mL
MRSA / USA100 / VRSA, S. aureus IHMA 672234, VRS4, MRSA / VRSA, USA100
  MIC: > 32 µg/mL
MRSA / USA100 / VRSA, S. aureus IHMA 672235, VRS5, MRSA / VRSA, USA100
  MIC: > 32 µg/mL
MRSA / USA100 / VRSA, S. aureus IHMA 672237, VRS7, MRSA / VRSA, USA100
  MIC: > 32 µg/mL
MRSA / USA100 / VRSA, S. aureus IHMA 672238, VRS8, MRSA / VRSA, USA100
  MIC: > 32 µg/mL
MRSA / USA100 / VRSA, S. aureus IHMA 672239, VRS9, MRSA / VRSA, USA100
  MIC: > 32 µg/mL
MRSA / USA100 / VRSA, S. aureus IHMA 1308256, VRS10, MRSA / VRSA, USA100
  MIC: > 32 µg/mL
MRSA / USA100 / VRSA, S. aureus IHMA 1308258, VRS11b, MRSA / VRSA, USA100
  MIC: > 32 µg/mL
MRSA / USA800 / VRSA, S. aureus IHMA 672233, VRS3b, MRSA / VRSA, USA800
  MIC: > 32 µg/mL
MRSA, S. aureus IHMA 1569509, MRSA / VSSA
  MIC: > 32 µg/mL
MRSA, S. aureus IHMA 1575268, MRSA / VSSA
  MIC: > 32 µg/mL
MRSA, S. aureus IHMA 1575629, MRSA / VSSA
  MIC: 1 µg/mL (≈ 1.34 µM)
MRSA, S. aureus IHMA 1577820, MRSA / VSSA
  MIC: > 32 µg/mL
MRSA, S. aureus IHMA 1580300, MRSA / VSSA
  MIC: 0.5 µg/mL (≈ 0.668 µM)
MRSA, S. aureus IHMA 1580940, MRSA / VSSA
  MIC: > 32 µg/mL
MRSA, S. aureus IHMA 1582100, MRSA / VSSA
  MIC: > 32 µg/mL
MRSA, S. aureus IHMA 1583795, MRSA / VSSA
  MIC: > 32 µg/mL
MRSA, S. aureus IHMA 1584223, MRSA / VSSA
  MIC: 32 µg/mL (≈ 42.7 µM)
MRSA, S. aureus IHMA 1585316, MRSA / VSSA
  MIC: > 32 µg/mL
MRSA, S. aureus IHMA 1586780, MRSA / VSSA
  MIC: 1 µg/mL (≈ 1.34 µM)
MRSA, S. aureus IHMA 1587322, MRSA / VSSA
  MIC: > 32 µg/mL
MRSA, S. aureus IHMA 1588127, MRSA / VSSA
  MIC: 0.5 µg/mL (≈ 0.668 µM)
MRSA, S. aureus IHMA 1591462, MRSA / VSSA
  MIC: 1 µg/mL (≈ 1.34 µM)
MRSA, S. aureus IHMA 1592755, MRSA / VSSA
  MIC: 0.5 µg/mL (≈ 0.668 µM)
MRSA, S. aureus IHMA 1592776, MRSA / VSSA
  MIC: > 32 µg/mL
MRSA, S. aureus IHMA 1597106, MRSA / VSSA
  MIC: > 32 µg/mL
MRSA, S. aureus IHMA 1602095, MRSA / VSSA
  MIC: > 32 µg/mL
MRSA, S. aureus IHMA 1611170, MRSA / VSSA
  MIC: > 32 µg/mL
MRSA, S. aureus IHMA 1611612, MRSA / VSSA
  MIC: > 32 µg/mL
MRSA, S. aureus IHMA 1612228, MRSA / VSSA
  MIC: 16 µg/mL (≈ 21.4 µM)
MRSA, S. aureus IHMA 1620441, MRSA / VSSA
  MIC: > 32 µg/mL
MRSA, S. aureus IHMA 1621638, MRSA / VSSA
  MIC: 1 µg/mL (≈ 1.34 µM)
MRSA, S. aureus IHMA 1622252, MRSA / VSSA
  MIC: 1 µg/mL (≈ 1.34 µM)
MRSA, S. aureus IHMA 1622527, MRSA / VSSA
  MIC: 1 µg/mL (≈ 1.34 µM)
MRSA, S. aureus IHMA 1666371, MRSA / VSSA
  MIC: 0.25 µg/mL (≈ 0.334 µM)
MRSA, S. aureus IHMA 1695391, MRSA / VSSA
  MIC: > 32 µg/mL
MRSA, S. aureus IHMA 1703428, MRSA / VSSA
  MIC: 0.5 µg/mL (≈ 0.668 µM)
MRSA, S. aureus IHMA 1720350, MRSA / VSSA
  MIC: 32 µg/mL (≈ 42.7 µM)
MRSA, S. aureus IHMA 1732989, MRSA / VSSA
  MIC: > 32 µg/mL
MRSA, S. aureus IHMA 1742231, MRSA / VSSA
  MIC: > 32 µg/mL
MRSA, S. aureus IHMA 1766357, MRSA / VSSA
  MIC: 1 µg/mL (≈ 1.34 µM)
MSSA / NRS 12 / VISA, S. aureus IHMA 1308244, NRS12, MSSA / VISA
  MIC: 0.5 µg/mL (≈ 0.668 µM)
MSSA / NRS 13 / VISA, S. aureus IHMA 1308245, NRS13, MSSA / VISA
  MIC: 1 µg/mL (≈ 1.34 µM)
MSSA / NRS 14 / VISA, S. aureus IHMA 1308246, NRS14, MSSA / VISA
  MIC: 0.5 µg/mL (≈ 0.668 µM)
MSSA / NRS 17 / VISA, S. aureus IHMA 1308247, NRS17, MSSA / VISA
  MIC: 8 µg/mL (≈ 10.7 µM)
MSSA / NRS 28 / VISA, S. aureus IHMA 1308249, NRS28, MSSA / VISA
  MIC: > 32 µg/mL
MSSA / NRS 52, S. aureus IHMA 1308252, NRS52, MSSA / VSSA* (*Expected VAN intermediate, confirmed VAN susceptible twice), test date 2018-11-07
  MIC: 0.25 µg/mL (≈ 0.334 µM)
MSSA / USA100 / VRSA, S. aureus IHMA 672236, VRS6, MSSA / VRSA, USA100
  MIC: > 32 µg/mL
MSSA, S. aureus IHMA 1563826, MSSA / VSSA
  MIC: 1 µg/mL (≈ 1.34 µM)
MSSA, S. aureus IHMA 1565492, MSSA / VSSA
  MIC: 1 µg/mL (≈ 1.34 µM)
MSSA, S. aureus IHMA 1569499, MSSA / VSSA
  MIC: 0.5 µg/mL (≈ 0.668 µM)
MSSA, S. aureus IHMA 1569754, MSSA / VSSA
  MIC: > 32 µg/mL
MSSA, S. aureus IHMA 1574202, MSSA / VSSA
  MIC: 0.5 µg/mL (≈ 0.668 µM)
MSSA, S. aureus IHMA 1575652, MSSA / VSSA
  MIC: 1 µg/mL (≈ 1.34 µM)
MSSA, S. aureus IHMA 1575779, MSSA / VSSA
  MIC: > 32 µg/mL
MSSA, S. aureus IHMA 1576329, MSSA / VSSA
  MIC: 1 µg/mL (≈ 1.34 µM)
MSSA, S. aureus IHMA 1577800, MSSA / VSSA
  MIC: 1 µg/mL (≈ 1.34 µM)
MSSA, S. aureus IHMA 1578560, MSSA / VSSA
  MIC: 1 µg/mL (≈ 1.34 µM)
MSSA, S. aureus IHMA 1580233, MSSA / VSSA
  MIC: > 32 µg/mL
MSSA, S. aureus IHMA 1580925, MSSA / VSSA
  MIC: 1 µg/mL (≈ 1.34 µM)
MSSA, S. aureus IHMA 1580955, MSSA / VSSA
  MIC: 1 µg/mL (≈ 1.34 µM)
MSSA, S. aureus IHMA 1582586, MSSA / VSSA
  MIC: 1 µg/mL (≈ 1.34 µM)
MSSA, S. aureus IHMA 1582691, MSSA / VSSA
  MIC: > 32 µg/mL
MSSA, S. aureus IHMA 1584230, MSSA / VSSA
  MIC: 1 µg/mL (≈ 1.34 µM)
MSSA, S. aureus IHMA 1587279, MSSA / VSSA
  MIC: 1 µg/mL (≈ 1.34 µM)
MSSA, S. aureus IHMA 1591459, MSSA / VSSA
  MIC: 0.5 µg/mL (≈ 0.668 µM)
MSSA, S. aureus IHMA 1592749, MSSA / VSSA
  MIC: 1 µg/mL (≈ 1.34 µM)
MSSA, S. aureus IHMA 1592751, MSSA / VSSA
  MIC: 1 µg/mL (≈ 1.34 µM)
MSSA, S. aureus IHMA 1594297, MSSA / VSSA
  MIC: 32 µg/mL (≈ 42.7 µM)
MSSA, S. aureus IHMA 1597120, MSSA / VSSA
  MIC: > 32 µg/mL
MSSA, S. aureus IHMA 1597125, MSSA / VSSA
  MIC: > 32 µg/mL
MSSA, S. aureus IHMA 1599157, MSSA / VSSA
  MIC: 1 µg/mL (≈ 1.34 µM)
MSSA, S. aureus IHMA 1599506, MSSA / VSSA
  MIC: 1 µg/mL (≈ 1.34 µM)
MSSA, S. aureus IHMA 1602078, MSSA / VSSA
  MIC: > 32 µg/mL
MSSA, S. aureus IHMA 1604586, MSSA / VSSA
  MIC: 0.25 µg/mL (≈ 0.334 µM)
MSSA, S. aureus IHMA 1604609, MSSA / VSSA
  MIC: 1 µg/mL (≈ 1.34 µM)
MSSA, S. aureus IHMA 1609919, MSSA / VSSA
  MIC: > 32 µg/mL
MSSA, S. aureus IHMA 1622864, MSSA / VSSA
  MIC: 1 µg/mL (≈ 1.34 µM)
MSSA, S. aureus IHMA 1626392, MSSA / VSSA
  MIC: 0.5 µg/mL (≈ 0.668 µM)
MSSA, S. aureus IHMA 1713793, MSSA / VSSA
  MIC: 1 µg/mL (≈ 1.34 µM)
